Measured values: ChEMBL document CHEMBL1129416, “Brain-targeted delivery of a leucine-enkephalin analogue by retrometabolic design” (J Med Chem, 1996)

Assay: The compound was evaluated for opioid receptors binding affinity competition with [3H]diprenorphine.

CC(C)C[C@@H](NC(=O)[C@H](Cc1ccccc1)NC(=O)CNC(=O)[C@@H](C)NC(=O)[C@@H](N)Cc1ccc(O)cc1)C(=O)O [DADLE]
IC50: 36 nM
